Data: patent US10934298B2, “Substituted pyrazolo[1,5-a]pyrimidines for the treatment of medical disorders” (BIAL—BioTech Investments, Inc., priority 2016, dated 2021)

Biological target: T1, glucocerebrosidase (Gcase) (Homo sapiens, UniProt P04062)
T1 construct: micellar solution containing 10 nM GCase and 100 nM saposin C
T1 sequence (P04062 40-536): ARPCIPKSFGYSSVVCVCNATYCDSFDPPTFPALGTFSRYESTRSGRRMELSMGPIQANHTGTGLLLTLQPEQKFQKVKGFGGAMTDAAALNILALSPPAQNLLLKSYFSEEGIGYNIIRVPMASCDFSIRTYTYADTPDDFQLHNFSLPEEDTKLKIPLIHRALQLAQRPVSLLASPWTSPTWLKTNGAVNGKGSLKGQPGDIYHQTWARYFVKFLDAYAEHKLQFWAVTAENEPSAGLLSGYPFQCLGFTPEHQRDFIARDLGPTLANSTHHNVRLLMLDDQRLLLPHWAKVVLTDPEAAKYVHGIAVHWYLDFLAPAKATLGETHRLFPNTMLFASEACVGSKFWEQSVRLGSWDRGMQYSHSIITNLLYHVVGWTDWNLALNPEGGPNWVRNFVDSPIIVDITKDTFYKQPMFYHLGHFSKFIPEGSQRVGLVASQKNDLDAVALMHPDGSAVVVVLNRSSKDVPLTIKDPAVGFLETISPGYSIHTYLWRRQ
Assay: Glucocerebrosidase (Gcase) activation assay with 4-methylumbelliferyl-beta-D-glucopyranoside substrate, saposin C and phosphatidylserine/triton micelles, fluorescence readout
Format: biochemical
Method in brief: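 Fluorescence (ex 365 nm, em 440 nm) read after glycine pH 12.5 stop of a 15 min room-temperature reaction. GCase 10 nM plus saposin C 100 nM in PS/triton micelles, pH 4.7, preincubated 30 min with compound; substrate solution held 2 mM 4-MU-beta-glucoside. Screened at 1.0 and 0.1 μM; 8-point, 3-fold curves from 5 μM top.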

| SMILES | Percent Gcase Activation, 0.1 μM Test Compound (0.1 μM test compound) | Percent Gcase Activation, 1 μM Test Compound (1 μM test compound) | Percent Gcase Activation, 0.1 μM Test Compound (test compound at 0.1 μM) | Percent Gcase Activation, 1 μM Test Compound (test compound at 1.0 μM) | also measured |
| --- | --- | --- | --- | --- | --- |
| Cc1cc(C)n2ncc(C(=O)NC(C3CC3)C(F)(F)F)c2n1 (centres unmarked) [III-9] | – | – | – | – | Percent Gcase Activation, 0.1 μM Test Compound (0.1 μM test compound, Table 3A): ** (Gcase activation in the range of 10% up to 20%); Percent Gcase Activation, 1 μM Test Compound (1 μM test compound, Table 3A): +++ (Gcase activation greater than 60%) |
| CCCCO[C@H]1CC[C@H](NC(=O)c2cnn3c(C)cc(-c4cncc(Cl)c4)nc23)CC1 [III-293] | *** (greater than 20% Gcase activation) | +++ (Gcase activation greater than 60%) | – | – | – |
| Cc1cc(-c2cccc3ncoc23)nc2c(C(=O)NC(C)(C)C(F)(F)F)cnn12 [III-219] | – | – | ** (Gcase activation in the range of 10% up to 20%) | ++ (Gcase activation in the range of 30% up to 60%) | – |
| Cc1cc(C)n2ncc(C(=O)Nc3ccc(C#CCN(C)C)cc3)c2n1 [IV-2] | – | – | – | – | Percent Gease Activation, 0.1 μM Test Compound (0.1 μM test compound, Table 4): * (less than 10% Gcase activation); Percent Gease Activation, 1 μM Test Compound (1 μM test compound, Table 4): + (less than 30% Gcase activation) |
| Cc1cc(-c2sccc2C#N)nc2c(C(=O)NC(C)C(F)(F)F)cnn12 (centres unmarked) [III-300] | *** (greater than 20% Gcase activation) | +++ (Gcase activation greater than 60%) | – | – | – |
| Cc1cc(-c2ccns2)nc2c(C(=O)N[C@@H](C)C3CC3)cnn12 [III-197] | – | – | *** (greater than 20% Gcase activation) | +++ (Gcase activation greater than 60%) | – |
| C#CC(C)(C)NC(=O)c1cnn2c(C)cc(-c3cccc(OC4CC4)c3)nc12 [III-82] | – | – | – | – | Percent Gcase Activation, 0.1 μM Test Compound (0.1 μM test compound, Table 3A): *** (greater than 20% Gcase activation); Percent Gcase Activation, 1 μM Test Compound (1 μM test compound, Table 3A): +++ (Gcase activation greater than 60%) |
| Cc1ccc(-c2cc(C)n3ncc(C(=O)N[C@H](C4CC4)C(F)(F)F)c3n2)c(F)n1 [III-372] | *** (greater than 20% Gcase activation) | +++ (Gcase activation greater than 60%) | – | – | – |
| Cc1cc(-c2cccnn2)nc2c(C(=O)NC(C3CC3)C(F)(F)F)cnn12 (centres unmarked) [III-324] | * (less than 10% Gcase activation) | + (less than 30% Gcase activation) | – | – | – |
| Cc1cc(N2CCN(C(C)C)C2=O)nc2c(C(=O)NC(C)(C)C3CC3)cnn12 [III-230] | – | – | * (less than 10% Gcase activation) | ++ (Gcase activation in the range of 30% up to 60%) | – |
| Cc1cc(-c2nc3ccccc3[nH]2)nc2c(C(=O)NC(C3CC3)C(F)(F)F)cnn12 (centres unmarked) [III-311] | * (less than 10% Gcase activation) | ++ (Gcase activation in the range of 30% up to 60%) | – | – | – |
| Cc1cc(-c2ccon2)nc2c(C(=O)N[C@@H](C3CC3)C(F)(F)F)cnn12 [III-241] | – | – | *** (greater than 20% Gcase activation) | +++ (Gcase activation greater than 60%) | – |
| Cc1cc(-c2ccc3scnc3c2)nc2c(C(=O)NC(C)C(F)(F)F)cnn12 (centres unmarked) [III-220] | – | – | *** (greater than 20% Gcase activation) | +++ (Gcase activation greater than 60%) | – |
| Cc1cc(-c2ccccc2C#N)nc2c(C(=O)N[C@H](C)C(F)(F)F)cnn12 [III-212] | – | – | * (less than 10% Gcase activation) | ++ (Gcase activation in the range of 30% up to 60%) | – |
| Cc1sncc1-c1cc(C)n2ncc(C(=O)N[C@H](C3CC3)C(F)(F)F)c2n1 [III-387] | *** (greater than 20% Gcase activation) | +++ (Gcase activation greater than 60%) | – | – | – |
| C#CC(C)(C)NC(=O)c1cnn2c(C)cc(-c3ccns3)nc12 [III-412] | * (less than 10% Gcase activation) | +++ (Gcase activation greater than 60%) | – | – | – |
| Cc1cc(-c2cncc(Cl)c2)nc2c(C(=O)N[C@H](C3CC3)C(F)(F)F)cnn12 [III-120] | – | – | *** (greater than 20% Gcase activation) | +++ (Gcase activation greater than 60%) | – |
| Cc1cc(-c2cc(C)n3ncc(C(=O)N[C@@H](C4CC4)C(F)(F)F)c3n2)sn1 [III-216] | – | – | *** (greater than 20% Gcase activation) | +++ (Gcase activation greater than 60%) | – |
| CNc1cc(C)n2ncc(C(=O)N[C@@H](C)C3CC3)c2n1 [III-6] | – | – | – | – | Percent Gcase Activation, 0.1 μM Test Compound (0.1 μM test compound, Table 3A): * (less than 10% Gcase activation); Percent Gcase Activation, 1 μM Test Compound (1 μM test compound, Table 3A): ++ (Gcase activation in the range of 30% up to 60%) |

| SMILES | Percent Gcase Activation, 0.1 μM Test Compound (0.1 μM test compound) | Percent Gcase Activation, 1 μM Test Compound (1 μM test compound) | Percent Gcase Activation, 0.1 μM Test Compound (test compound at 0.1 μM) | Percent Gcase Activation, 1 μM Test Compound (test compound at 1.0 μM) | also measured |
| --- | --- | --- | --- | --- | --- |
| Cc1cc(-c2cc(C)n3ncc(C(=O)NC(C4CC4)C(F)(F)F)c3n2)sn1 (centres unmarked) [III-214] | – | – | *** (greater than 20% Gcase activation) | +++ (Gcase activation greater than 60%) | – |
| Cc1cc(-c2ccccc2)nc2c(C(=O)N[C@@H](C)C3CC3)cnn12 [III-136] | – | – | *** (greater than 20% Gcase activation) | +++ (Gcase activation greater than 60%) | – |
| Cc1cc(-c2cccnc2C#N)nc2c(C(=O)NC(C)(C)C3CC3)cnn12 [III-371] | * (less than 10% Gcase activation) | +++ (Gcase activation greater than 60%) | – | – | – |
| Cc1cc(-c2cncc(F)c2)nc2c(C(=O)NC(C3CC3)C(F)(F)F)cnn12 (centres unmarked) [III-125] | – | – | *** (greater than 20% Gcase activation) | +++ (Gcase activation greater than 60%) | – |
| Cc1cc(-c2cccnc2)nc2c(C(=O)N[C@H](C3CC3)C(F)(F)F)cnn12 [III-88] | – | – | *** (greater than 20% Gcase activation) | +++ (Gcase activation greater than 60%) | – |
| Cc1coc(-c2cc(C)n3ncc(C(=O)N[C@H](C4CC4)C(F)(F)F)c3n2)n1 [III-255] | – | – | ** (Gcase activation in the range of 10% up to 20%) | +++ (Gcase activation greater than 60%) | – |
| Cc1cc(-c2ccc(F)c(C#N)c2)nc2c(C(=O)NC(C3CC3)C(F)(F)F)cnn12 (centres unmarked) [III-158] | – | – | *** (greater than 20% Gcase activation) | +++ (Gcase activation greater than 60%) | – |
| COc1c(C#N)cccc1-c1cc(C)n2ncc(C(=O)N[C@H](C)C3CC3)c2n1 [III-144] | – | – | * (less than 10% Gcase activation) | + (less than 30% Gcase activation) | – |
| Cc1cc(-c2cncc(C(F)(F)F)c2)nc2c(C(=O)NC(C)C(F)(F)F)cnn12 (centres unmarked) [III-285] | *** (greater than 20% Gcase activation) | +++ (Gcase activation greater than 60%) | – | – | – |
| Cc1cc(-c2cncc(F)c2)nc2c(C(=O)N[C@H](C3CC3)C(F)(F)F)cnn12 [III-126] | – | – | *** (greater than 20% Gcase activation) | +++ (Gcase activation greater than 60%) | – |
| Cc1ncccc1-c1cc(C)n2ncc(C(=O)N[C@@H](C3CC3)C(F)(F)F)c2n1 [III-377] | * (less than 10% Gcase activation) | + (less than 30% Gcase activation) | – | – | – |
| Cc1cncc(-c2cc(C)n3ncc(C(=O)N[C@@H](C4CC4)C(F)(F)F)c3n2)c1 [III-277] | – | – | *** (greater than 20% Gcase activation) | +++ (Gcase activation greater than 60%) | – |
| Cc1cc(-c2cccc3ncn(C)c23)nc2c(C(=O)NC(C3CC3)C(F)(F)F)cnn12 (centres unmarked) [III-309] | * (less than 10% Gcase activation) | + (less than 30% Gcase activation) | – | – | – |
| Cc1cc(-c2cccnc2)nc2c(C(=O)N[C@H]3CC[C@H](OC(C)(C)C)CC3)cnn12 [III-38] | – | – | – | – | Percent Gcase Activation, 0.1 μM Test Compound (0.1 μM test compound, Table 3A): * (less than 10% Gcase activation); Percent Gcase Activation, 1 μM Test Compound (1 μM test compound, Table 3A): + (less than 30% Gcase activation) |
| Cc1cc(N2CCOCC2)nc2c(C(=O)NC(C)(C)C3CC3)cnn12 [III-59] | – | – | – | – | Percent Gcase Activation, 0.1 μM Test Compound (0.1 μM test compound, Table 3A): * (less than 10% Gcase activation); Percent Gcase Activation, 1 μM Test Compound (1 μM test compound, Table 3A): ++ (Gcase activation in the range of 30% up to 60%) |
| Cc1cc(-c2cncc(Cl)c2)nc2c(C(=O)N[C@@H](C)C3CC3)cnn12 [III-290] | *** (greater than 20% Gcase activation) | +++ (Gcase activation greater than 60%) | – | – | – |
| Cc1cc(-c2cc(F)c3ocnc3c2)nc2c(C(=O)N[C@@H](C)C(F)(F)F)cnn12 [III-297] | *** (greater than 20% Gcase activation) | +++ (Gcase activation greater than 60%) | – | – | – |
| Cc1cc(-c2ccon2)nc2c(C(=O)NC(C3CC3)C(F)(F)F)cnn12 (centres unmarked) [III-239] | – | – | ** (Gcase activation in the range of 10% up to 20%) | +++ (Gcase activation greater than 60%) | – |
